From patent US7923204B2, “Forward mutation assay based on 5-fluorouracil resistance” (priority 2003, dated 2011)
Read-outs that look alike come from different tables or passages of the source.

Key:
[1] = system: FU100; conditions: for Results (5-FU assay): FU100, 2 h exposure; for Lowest Positive Dose: lowest dose tested giving a positive response; for response in the 5-FU Assay (in words): text and figure legend (FIG. 6), with or without S9
Experimental: Briefly, in order to practice the disclosed mutation assay one-ml aliquots of exponentially growing bacteria are exposed to the test agent for two hours in the presence and absence of a metabolic activation system, such as a mammalian (i.e., rat, hamster or human) liver homogenate (S9-fraction or liver microsomal enzymes). The aliquots are then diluted, allowed to grow for 3 hours, and assessed for treatment-related toxicity/inhibition by optical density. The cultures are subsequently diluted a second time and grown overnight to permit full recovery from toxicity and to allow expression of the FU^R phenotype. Samples of the cultures are then plated in 384-well microtiter dishes in the presence of 2 μg/ml 5-FU and the pH-sensitive indicator bromcresol purple. Three days later positive wells containing FU^R colonies are detected by their yellow color and enumerated. Treated cultures are then compared to control plates to determine genotoxic activity.
For each mutation experiment, two frozen 1-ml aliquots of FU100 were quickly thawed in a 37° C. water bath, pelleted by centrifugation, washed to remove the DMSO, and suspended in 35 mL of MinE medium. The culture was shaken for approximately 1 hour at 37° C. until the optical density at 600 nm (OD600) reached the target density of 0.3. A 16-ml aliquot of culture was added to each of two 50-ml tubes containing 3.6 ml of a NADPH-generating system (5.6 mM glucose-6-phosphate, 4.5 mM NADP+, 5 mM sucrose, 110 mM Na2HPO4, 37 mM KCl, and 9 mM MgCl2) and either 0.4 ml rat liver S-9 or an equal volume of sodium phosphate buffer. Aliquots of these mixtures were distributed into three 12-well cluster dishes (one for exposure with S-9, one for exposure without S-9, one for controls with and without S-9), and exposed to test compounds as 1-ml aliquots for 2 hour as outlined in FIG. 1.
Following treatment, the 1-ml aliquots were transferred into 9 ml of warm MinE medium in a 50 ml tube and incubated at 37° C. on a rotary wheel for 3 hours. Next, 20 ml of medium was added to each culture tube and 0.25 ml aliquots were transferred to a 96-well plate for OD600 measurements to assess toxicity (OD Day 1). […] Bulk cultures were then incubated overnight in the dark at 30° C. to permit recovery from toxicity and to allow time for the test cells to express the FU^R phenotype.
The next day, OD600 was again assessed to adjust cell number plated on 5-FU plates (OD Day 2; 100 μl of the culture diluted with 150 μl MinE medium for OD600 measurements). For plating, a 35 μl aliquot of each culture was added to 31.4 mL of MinE medium with 2 μg/ml of 5-FU and 10 μg/ml of bromcresol purple. The mixture was then dispersed into a 384-well plate (75 μl/well) and placed at 37° C. for 3 days in a humidified incubator.
The data obtained for both survival (OD day 1), relative number of cells plated (OD day 2), and number of positive wells were imported into an Excel template.
Table 8 summarizes the criteria for positive result in 5-FU assay using the FU100 tester strain described and claimed herein. […] A positive compound was defined when two or more doses met the aforementioned criteria.

[2] = system: TA100, TA1535; conditions: TA100 or TA1535; plate incorporation or liquid suspension
Description: As stated above, the Ames Salmonella his+ plate incorporation assay evaluates genotoxic activity (mutagenicity) of chemical compounds on a set of genetically modified bacterial tester strains that are auxotrophic for the amino acid histidine. In practice, the Ames Assay simultaneously evaluates the genotoxic activity of a potential mutagen on several different target genes. The standard Ames Assay utilizes several different tester strains, each with a distinct mutation (e.g., transition, frameshift etc.) in one of the genes comprising the histidine (his) biosynthetic operon. The his operon encodes enzymes required for the biosynthesis of the amino acid histidine. For example, strain TA98 contains the hisD3052 allele which is reverted by a frameshift mutation, while strain TA1535 contains the hisG46 allele which is reverted by transition and transversion mutations. More specifically, the Ames Assay evaluates the ability of a chemical agent to increase the rate of reversion of auxotrophic strains of Salmonella to prototrophy.

[3] = system: FU100; conditions: approximate, first dose with greater than 50% survival by optical density on Day 1
[4] = system: Salmonella; conditions: NTP Results Report 12 Aug. 2002 or cited reference (footnotes f, g, i, j); cited from earlier work
[5] = system: chromosome aberrations; conditions: NTP Results Report 12 Aug. 2002; cited from earlier work
[6] = system: sister chromatid exchange; conditions: NTP Results Report 12 Aug. 2002; cited from earlier work
[7] = system: mouse lymphoma; conditions: NTP Results Report 12 Aug. 2002; cited from earlier work
[8] = system: micronucleus; conditions: NTP Results Report 12 Aug. 2002; cited from earlier work
[9] = system: TA100 his+
Experimental: A study was then conducted to determine the optimal concentration of the selective agent 5-FU. The growth rate was determined for cultures in MinE containing up to 8 μg/ml 5-FU.

[10] = system: wild-type cells; experiment: Growth inhibition by 5-fluoroorotic acid (block of de novo pyrimidine synthesis); assay type: cell-based, Salmonella; conditions: 50 μg/ml; reversed by addition of 20 μg/ml uracil
Description: It was recognized that reducing the background mutation frequency by eliminating preexisting FU^R mutants could increase the sensitivity of the assay. Since the only mechanism leading to 5-FU resistance in Salmonella involves loss of uracil phosphoribosyltransferase, a uracil salvage enzyme and product of the upp gene, it was theorized that blockage of the de novo pyrimidine synthesis and supplementation with uracil should permit growth of wild-type cells and selection against FU^R upp mutants.
It was also determined that upp mutants cannot grow in the presence of 5-fluorooroticacid and uracil, presumably due to their inability to utilize exogenous uracil. […] Frozen stocks of FU100 were prepared using cultures grown under these conditions (described in Materials and Methods) in order to produce “cleansed” working stocks with reduced background.

[11] = in the presence of S9 activation (+)

SMILES | Results (5-FU assay) [1, 11] | Lowest Positive Dose [1, 11] [µg/mL] | response in the 5-FU Assay (in words) [1] | response in the 5-FU Assay (in words) ([1]; listed as 1,2-epoxybutane) | Results (5-FU assay) ([1]; without S9 activation (−)) | Lowest Positive Dose ([1]; without S9 activation (−)) [µg/mL] | response in the standard Ames assay (in words) [2] | LD50 [3, 11] [µg/mL] | LD50 ([3]; without S9 activation (−)) [µg/mL] | NTP Results: SA = Salmonella [4] | NTP Results: CA = chromosome aberrations [5] | NTP Results: SC = sister chromatid exchange [6] | NTP Results: ML = mouse lymphoma [7] | NTP Results: MN = micronucleus [8] | 5-FU concentration that significantly inhibited culture growth [9] | 5-FU concentration at which cultures continued to grow (longer doubling times) ([9]; cultures in MinE, up to 8 μg/ml 5-FU, data not shown) | effect on growth of wild-type cells [10]
CCC1CO1 (stereo not shown) [1,2-Epoxybutane] | Pos | 500 | positive compounds in non-toxic concentrations | easy to detect | Pos | 8.9 | weak or equivocal response | >5000 | >5000 | + | + | + | + | − |  |  | 
O=c1[nH]cc(F)c(=O)[nH]1 [5-FU, 5-fluorouracil] |  |  |  |  |  |  |  |  |  |  |  |  |  |  | greater than or equal to 1 μg/ml | less than or equal to 0.5 μg/ml | 
O=C(O)c1[nH]c(=O)[nH]c(=O)c1F [5-fluorooroticacid, 5-fluoroorotic acid] |  |  |  |  |  |  |  |  |  |  |  |  |  |  |  |  | inhibited growth
ClCc1ccccc1 [Benzyl Chloride] | Pos | 50 | easy to detect |  | Pos | 28 | weak or equivocal response | >150 | >1500 | +^w | + | + | + |  |  |  | 
O=P1(N(CCCl)CCCl)NCCCO1 (stereo not shown) [Cyclophosphamide•H2O] | Pos^w | 1500 | weak positive |  | Neg |  | positive | >300 | >1500 | (SA+, CA+, SC+, MN+) | (SA+, CA+, SC+, MN+) | (SA+, CA+, SC+, MN+) |  | (SA+, CA+, SC+, MN+) |  |  | 
